Measured values: patent KR20070037041A, “누에 수번데기로부터 아데노신 유도체 화합물을 정제하는방법 및 아데노신 유도체 화합물을 포함하는 발기부전치료용 조성물” (대한민국(관리부서:농촌진흥청장), priority 2005, dated 2007)

Experiments:
[1] = test system: bovine endothelial cells (CPAE) [소내피세포(CPAE)]; assay type: cell-based; conditions: 24 h
[2] = test system: bovine vascular endothelial cells (CPAE cell line) [소혈관 내피세포(CPAE cell line)]; assay: NO production in CPAE endothelial cells (total nitrate/nitrite, Nims method); assay type: cell-based
[3] = test system: phosphodiesterase I from snake venom (Crotalus atrox), PDE type IV [포스포디에스테라제 I은 뱀독 (Crotalus atrox) 유래 PDE 타입 IV]; assay: Phosphodiesterase inhibition ([3H] cAMP SPA); assay type: biochemical
[4] = test system: phosphodiesterase (PDE) [포스포디에스터라제]; assay: PDE inhibition in combination with existing PDE inhibitors; assay type: biochemical; conditions: existing PDE inhibitor combined with DX fraction (20, 10, 4 μg); in words
[5] = cited from earlier work

5-{6-(디메틸아미노)-9H-푸린-9-일}-테트라히드로-4'-푸란-3'-올-5'-o-테트라파이로(tetrafyro)-2H-피란-3'',4'',5''-트리올 [RPC-IV]
cell viability [1]: 86.9% | NO production (540 nm) ([2]; RP-HPLC fractions, absorbance at 540 nm): 1.426 | NO activity ([2]; chromatographic fractions, in words): 최대로 방출 | phosphodiesterase inhibition ([3]; 0, 2, 10, 20 μg, in words): 용량의존적 저해 | IC50 ([3]; PDE [3H] cAMP SPA): 0.88 µg/mL

COc1cc2c(cc1OC)-c1c/c(=N\c3c(C)cc(C)cc3C)n(C)c(=O)n1CC2 [Trequinsin, 하이드로클로라이드]
PDE inhibition on combined administration [4]: 상승작용

CCCc1nc(C)c2c(=O)[nH]c(-c3cc(S(=O)(=O)N4CCN(CC)CC4)ccc3OCC)nn12 [레비트라]
duration of erection ([5]; background): ≤ 36 h

CN1CC(=O)N2[C@H](c3ccc4c(c3)OCO4)c3[nH]c4ccccc4c3C[C@@H]2C1=O [시알리스]
duration of drug effect ([5]; background): ≤ 36 h

CCCOc1ccccc1-c1nc2nn[nH]c2c(=O)[nH]1 [자프리나스트(zaprinast)]
erection induction ([5]; compared with Viagra, Trigo-Rocha 1993, Taher 1994): 비아그라보다 다소 낮은 정도로 발기를 유도
